Source: ChEMBL document CHEMBL1130796, “7,8-Methylenedioxy-4H-2,3-benzodiazepin-4-ones as novel AMPA receptor antagonists” (Bioorg Med Chem Lett, 1998)
The source made the active and inactive calls. The rule behind the calls is not given here.

Assays:
[1] = species on record: Mus musculus; assay: Compound was evaluated for anticonvulsant activity against PTZ induced seizures (clonic phase) in swiss mice; assay type: functional
[2] = species on record: Mus musculus; assay: Compound was evaluated for anticonvulsant activity against audiogenic induced seizures after pretreatment with aniracetam (tonic phase); ND means not detected; assay type: functional, organism-based
[3] = species on record: Mus musculus; assay: Compound was evaluated for anticonvulsant activity against audiogenic induced seizures after pretreatment with aniracetam (clonic phase); ND means not detected; assay type: functional, organism-based
[4] = species on record: Mus musculus; assay: Compound was evaluated for anticonvulsant activity against audiogenic seizures in DBA/2 mice( tonic phase); assay type: functional
[5] = species on record: Mus musculus; assay: Compound was evaluated for anticonvulsant activity against audiogenic seizures in DBA/2 mice( clonic phase); assay type: functional
[6] = species on record: Mus musculus; assay: Compound was evaluated for anticonvulsant activity against AMPA induced seizures in DBA/2 mice( tonic phase); assay type: functional
[7] = Compound was evaluated for toxic dose on locomotor assessed by rotarod test in mice; assay type: ADME; conditions: mouse, in vivo
[8] = species on record: Mus musculus; assay: Compound was evaluated for anticonvulsant activity against AMPA induced seizures in DBA/2 mice( clonic phase); assay type: functional
[9] = species on record: Mus musculus; assay: Compound was evaluated for anticonvulsant activity against MES induced seizures(tonic phase) in swiss mice; assay type: functional
[10] = species on record: Mus musculus; assay: Compound was evaluated for anticonvulsant activity against audiogenic induced seizures after pretreatment with aniracetam (clonic phase); p<0.01; assay type: functional
[11] = species on record: Mus musculus; assay: Compound was evaluated for anticonvulsant activity against audiogenic induced seizures after pretreatment with aniracetam (tonic phase); p<0.01; assay type: functional
[12] = species on record: Mus musculus; assay: Compound was evaluated for anticonvulsant activity against audiogenic induced seizures after pretreatment with aniracetam (clonic phase); assay type: functional
[13] = species on record: Mus musculus; assay: Compound was evaluated for anticonvulsant activity against audiogenic induced seizures after pretreatment with aniracetam (tonic phase); assay type: functional
[14] = species on record: Mus musculus; assay: Compound was evaluated for anticonvulsant activity against audiogenic induced seizures after pretreatment with aniracetam (clonic phase); p <0.01; assay type: functional
[15] = species on record: Mus musculus; assay: Compound was evaluated for anticonvulsant activity against audiogenic induced seizures after pretreatment with aniracetam (tonic phase); p <0.01; assay type: functional
[16] = Ratio between TD50 and ED50 from the clonic phase of the audiogenic seizures was determined; assay type: ADME
[17] = species on record: Mus musculus; assay: Compound was evaluated for anticonvulsant activity against audiogenic induced seizures after pretreatment with aniracetam (tonic phase); p< 0.01; assay type: functional
[18] = species on record: Mus musculus; assay: Compound was evaluated for anticonvulsant activity against audiogenic induced seizures after pretreatment with aniracetam (clonic phase); p< 0.01; assay type: functional

Compound | ED50 [1] | ED50 [4] | ED50 [5] | ED50 [6] | TD50 [7] | ED50 [8] | ED50 [9] | also measured
O=C1Cc2cc3c(cc2C(c2ccccc2)=NN1)OCO3 | 23.1 mg/kg | 11.4 mg/kg | 12.1 mg/kg | 16.8 mg/kg | 44.6 mg/kg | 20.8 mg/kg | 12.6 mg/kg | ED50 [2]: inactive; ED50 [3]: inactive
CC1=NN=C(c2ccc(N)cc2)c2cc3c(cc2C1)OCO3 [GYKI-52466] | 20 mg/kg | – | – | 11.9 mg/kg | 22.3 mg/kg | 16.8 mg/kg | – | ED50 [10]: 39.3 mg/kg; ED50 [11]: 29.3 mg/kg
COc1ccc(C2=NNC(=O)Cc3cc4c(cc32)OCO4)cc1 | – | > 37.2 mg/kg | > 37.2 mg/kg | – | > 62.1 mg/kg | – | – | –
COc1cc2c(cc1OC)C(c1ccccc1)=NNC(=O)C2 | 19.1 mg/kg | – | 10 mg/kg | 11.9 mg/kg | 42.1 mg/kg | 18.5 mg/kg | 10.6 mg/kg | ED50 [12]: 60.2 mg/kg; ED50 [13]: 44 mg/kg
COc1cc2c(cc1OC)C(c1ccc(N)cc1)=NNC(=O)C2 | 6.99 mg/kg | – | – | 7.73 mg/kg | 17.4 mg/kg | 9.93 mg/kg | 4.92 mg/kg | ED50 [14]: 20.2 mg/kg; ED50 [15]: 18 mg/kg
O=C1Cc2cc3c(cc2C(c2ccc(O)cc2)=NN1)OCO3 | – | 14.7 mg/kg | 15.5 mg/kg | – | 44.7 mg/kg | – | – | selectivity ratio [16]: 2.9
Nc1ccc(C2=NNC(=O)Cc3cc4c(cc32)OCO4)cc1 | 21.2 mg/kg | 3.22 mg/kg | 6.44 mg/kg | 8.41 mg/kg | 29.3 mg/kg | 11.2 mg/kg | 9.48 mg/kg | ED50 [17]: 11.7 mg/kg; ED50 [18]: 18.5 mg/kg
Nc1cccc(C2=NNC(=O)Cc3cc4c(cc32)OCO4)c1 | 11.9 mg/kg | 3.74 mg/kg | 5.32 mg/kg | 7.03 mg/kg | 29.8 mg/kg | 8.62 mg/kg | 5.7 mg/kg | ED50 [2]: inactive; ED50 [3]: inactive
COc1cc2c(cc1OC)C(c1cccc(N)c1)=NNC(=O)C2 | – | – | – | – | 15.9 mg/kg | – | – | –
